Reference: patent publication US11691984B2, “Compounds and methods for DCAF-mediated protein degradation” (The Scripps Research Institute, priority 2018, dated 2023)

What was measured:
[1] = Cell viability assay (Cell Titer Glo); format: cell-based, human; conditions: human, HEK293T cells, 24 hours, read-out: cytotoxicity IC50
Protocol: HEK293T cells were seeded in 96-well clear bottom white plate (Corning) at 3×10^4 cells per well in 100 μL of DMEM medium and grown for 24 h. The cells were treated with 0.625, 1.25, 2.5, 5, 10, 20 and 40 μM of KB02-SLF or KB02-JQ1 (DMSO stock, final DMEM concentration is 0.1% (v/v)) in 100 μL of DMEM medium for 24 h. 50 μL of Cell Titer Glo reagent (Promega) was added to each well and incubate for 10 min at room temperature. The luminescence was read on CLARIOstar (BMG LAB TECH).

[2] = biological target: T1, DCAF16 (Homo sapiens, UniProt Q9NXF7); assay: Competitive ABPP (TMT) of cysteine engagement in endogenous DCAF16; format: cell-based; conditions: HEK293T, 1.5 h
T1 construct: endogenously expressed DCAF16 in HEK293T cells; endogenous in cells; host or cells: HEK293T
Protocol: HEK293T cells were treated with DMSO (four biological replicates), 2 μM KB02-SLF (three biological replicates) or 20 μM KB02-JQ1 (three biological replicates) for 1.5 h (ten samples in total). Cells were collected, washed once with PBS and lysed in PBS by sonication (40%, 4, 20 pulses). Samples were clarified by centrifugation for 10 min at 8,000 g. Lysate was adjusted to 1.0 mg/mL in 500 μL. Samples were labeled with 100 μM iodoacetamide alkyne (5 μL of 10 mM stock in DMSO) at room temperature for 1 hour, conjugated by CuACC to desthiobiotin azide (10 μL of 5 mM stock in DMSO, final concentration=100 tris(2-carboxyethyl)phosphine hydrochloride (TCEP, 10 μL of 50 mM stock in H2O, final concentration=1 mM), TBTA (30 μL of 1.7 mM stock in 4:1 tBuOH:DMSO, final concentration=100 μM) and CuSO4 (10 μL of 50 mM stock in H2O, final concentration=1 mM). The samples were allowed to react for 1 hour at room temperature. Proteins were precipitated by adding 3.5 mL of H2O, 4 mL of methanol and 1.5 mL of chloroform, followed by centrifugation at 5,000 g for 15 min (4° C.). After aspirating the top layer, the protein pellets with bottom layer were washed with 8 mL cold methanol by centrifugation at 5,000 g for 15 min (4° C.). Protein pellets were resuspended in 90 μL of buffer containing 9 M urea, 10 mM DTT and 50 mM tetramethylammonium bicarbonate (pH 8.5), sonicated (40%, 4, 5 pulses) and heated at 65° C. for 20 min. Samples were cooled to room temperature and alkylated with 50 mM iodoacetamide (10 μL of 500 mM stock in H2O) at 37° C. for 30 minutes. Samples were diluted with 350 μL of 50 mM tetramethylammonium bicarbonate (pH 8.5) and digested with 2 μg trypsin at 37° C. for 4 hours. 40 μL of streptavidin-agarose beads slurry was washed in immunoprecipitation (IP) washing buffer and added to each sample. Beads with peptide samples were rotated for 1 hour at room temperature, filtered off by micro Bio-Spin chromatography column (Bio-Rad) and washed with 1 mL of IP washing buffer (three times), 1 mL of PBS (three times) and 1 mL of H2O. Peptides were eluted by adding 300 μL of 50% acetonitrile with 0.1% of formic acid and dried in vacuum concentrator.
Peptides were resuspended in 100 μL of 30% acetonitrile in 200 mM EPPS (pH 8) and labeled with TMT10plex isobaric reagent following the manufacturer's instructions. 0.15% of hydroxylamine (3 μL of 5% stock in H2O) was added to each sample to quench the reaction (incubate for 15 minutes). After adding 5 μL of formic acid to each sample, 10 peptide samples were combined and dried in vacuum concentrator. […]
The samples were analyzed in Orbitrap Fusion Tribrid mass spectrometer (Thermo Scientific) coupled to UltiMate 3000 HPLC system (Thermo Scientific). […]

Row | SMILES | IC50 at 24 h [1] | engagement of DCAF16 C119 ([2]; KB02-SLF 2 μM) | engagement of DCAF16 peptide (aa 168-184) containing cysteines 173 and 177-179 ([2]; KB02-SLF 2 μM) | engagement of DCAF16 C119 ([2]; KB02-JQ1 20 μM) | engagement of DCAF16 peptide (aa 168-184) containing cysteines 173 and 177-179 ([2]; KB02-JQ1 20 μM)
1 | CCC(C)(C)C(=O)C(=O)N1CCCC[C@H]1C(=O)O[C@H](CCc1ccc(OC)c(OC)c1)c1cccc(NC(=O)CCOCCOCCNC(=O)COc2ccc3c(c2)CCCN3C(=O)CCl)c1 [KB02-SLF, (R)-1-(3-(3-(2-(2-(2-((1-(2-chloroacetyl)-1,2,3,4-tetrahydroquinolin-6-yl)oxy)acetamido)ethoxy)ethoxy)propanamido)phenyl)-3-(3,4-dimethoxyphenyl)propyl (S)-1-(3,3-dimethyl-2-oxopentanoyl)piperidine-2-carboxylate] | 14 ± 1.1 µM | no evidence of engagement | ~10% |  | 
2 | Cc1sc2c(c1C)C(c1ccc(Cl)cc1)=N[C@@H](CC(=O)NCCOCCOCCNC(=O)COc1ccc3c(c1)CCCN3C(=O)CCl)c1nnc(C)n1-2 [KB02-JQ1, (S)-2-((1-(2-chloroacetyl)-1,2,3,4-tetrahydroquinolin-6-yl)oxy)-N-(2-(2-(2-(2-(4-(4-chlorophenyl)-2,3,9-trimethyl-6H-thieno[3,2-f][1,2,4]triazolo[4,3-a][1,4]diazepin-6-yl)acetamido)ethoxy)ethoxy)ethyl)acetamide] | > 50 µM |  |  | no evidence of engagement | 40%
